In PubChem BioAssay (NCI) one finds TGI and GI50 data, which are given here for eight compounds.

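The compound was tested at five concentrations on cells cultured in 96-well plates, with a 48-hour exposure period. Abbreviation: GI50, concentration required for 50% inhibition of growth. The concentration for full growth arrest is given as TGI.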

Some test systems named below: KM12 colon; SF-539 CNS; A549 NSCLC; M14 melanoma; CAKI-1 renal; A498 renal; NCI-H460 lung; UO-31 renal; SN12C renal; K-562 leukemia.
Assay in all cases: NCI tumour cell line growth inhibition, 48 h

As for `COc1c(CC=C(C)C)c(O)c(C(CC(C)C)c2c(O)c(CC=C(C)C)c(O)c(C(C)=O)c2O)c(O)c1C(C)=O` (stereo unspecified), the TGI in the experiment on KM12 colon worked out at 5.05 µM; in the experiment on SF-539 CNS, 7.76 µM; in the experiment with A549 NSCLC it was 12.1 µM; with M14 melanoma, 5.72 µM; in the experiment with CAKI-1 renal, 11.7 µM; in the experiment with A498 renal it was 1.24 µM. In addition, the TGI in the experiment with NCI-H460 lung is 10.2 µM; with UO-31 renal it was 11.1 µM; in the experiment with SN12C renal, 6.84 µM; in the experiment with K-562 leukemia it was 5.71 µM.

As for `NCc1ccc(-c2nc(-c3ccc(Cl)c(O)c3)c(-c3ccncc3)[nH]2)cc1`, the GI50 is > 25 µM with KM12 colon; > 25 µM with SF-539 CNS; > 25 µM in the experiment with A549 NSCLC; 5.47 µM with M14 melanoma; > 25 µM in the experiment on CAKI-1 renal; > 25 µM in the experiment on A498 renal. Further, the GI50 is > 25 µM in the experiment with NCI-H460 lung, 17.2 µM with UO-31 renal, > 25 µM in the experiment on SN12C renal and > 25 µM with K-562 leukemia. The TGI was > 25 µM in the experiment on KM12 colon; > 25 µM with SF-539 CNS; > 25 µM with A549 NSCLC; 24.7 µM with M14 melanoma; > 25 µM in the experiment with CAKI-1 renal; > 25 µM in the experiment with A498 renal. For the same compound, the TGI with NCI-H460 lung, in the experiment with UO-31 renal, with SN12C renal and in the experiment on K-562 leukemia was > 25 µM each time.

Take `CC1CCC2(C)C(CC=C(C=O)C2(O)C=O)C12CO2` (stereo unspecified): the TGI in the experiment with KM12 colon was found to be 11.4 µM; in the experiment on SF-539 CNS it was 4.52 µM; in the experiment on A549 NSCLC it was 26.4 µM; in the experiment with M14 melanoma, 6.29 µM; with CAKI-1 renal, 11 µM; with A498 renal, 20.1 µM. The TGI in the experiment with NCI-H460 lung is 7.7 µM; in the experiment with UO-31 renal, 5.69 µM; with SN12C renal, 8.59 µM; in the experiment with K-562 leukemia, 4.67 µM.

In the case of `O=S(=O)(NCCCNc1cc(-c2cn(-c3ccccc3)nc2-c2cccc(O)c2)ccn1)c1ccc(F)cc1`, the GI50 was 3.24 µM in the experiment on KM12 colon; 2.99 µM in the experiment on SF-539 CNS; 5.11 µM in the experiment on A549 NSCLC; 2.85 µM with M14 melanoma; 4.56 µM with CAKI-1 renal; 2.49 µM with A498 renal. The GI50 in the experiment on NCI-H460 lung is 3.64 µM; in the experiment with UO-31 renal, 2.62 µM; in the experiment with SN12C renal, 4.32 µM; in the experiment with K-562 leukemia it was 2.4 µM. Further, the TGI came out at 11.7 µM in the experiment with KM12 colon; 15.8 µM with SF-539 CNS; 21 µM with A549 NSCLC; 8.75 µM with M14 melanoma; 44.6 µM in the experiment with CAKI-1 renal; 9.81 µM in the experiment with A498 renal. The TGI was 13.9 µM in the experiment with NCI-H460 lung, 11.9 µM with UO-31 renal, 28.2 µM with SN12C renal and 6.38 µM with K-562 leukemia.

Regarding `CC(=O)N(O)c1ccc(/C=C/c2ccccc2)cc1`, the GI50 in the experiment with KM12 colon was 2.99 µM; with SF-539 CNS it was 2.43 µM; with A549 NSCLC, 1.26 µM; in the experiment with M14 melanoma it was 3.35 µM; with CAKI-1 renal, 0.543 µM; in the experiment on A498 renal it was 0.221 µM. The GI50 in the experiment on NCI-H460 lung is 0.247 µM; in the experiment on UO-31 renal, 0.759 µM; in the experiment with SN12C renal, 0.763 µM; in the experiment on K-562 leukemia, 7.39 µM. Further, the TGI in the experiment on KM12 colon is 28.3 µM; with SF-539 CNS, 35.1 µM; in the experiment on A549 NSCLC it was 15.5 µM; with M14 melanoma, > 100 µM; with CAKI-1 renal, 3.22 µM; in the experiment on A498 renal, 0.715 µM. The TGI with NCI-H460 lung was 8.39 µM; with UO-31 renal, 2.9 µM; in the experiment with SN12C renal it was 37.5 µM; with K-562 leukemia it was > 100 µM.

In the case of `CC(C)N(Cc1ccc(F)cc1)c1ccc(CO)c(Cl)c1`, the GI50 with KM12 colon is 10.9 µM; in the experiment with SF-539 CNS, 13.4 µM; in the experiment with A549 NSCLC, 1.03 µM; in the experiment with M14 melanoma, 13 µM; in the experiment on CAKI-1 renal, 0.245 µM; in the experiment on A498 renal, 0.0225 µM. The GI50 is 0.144 µM in the experiment with NCI-H460 lung, 0.732 µM in the experiment with UO-31 renal, 10.8 µM in the experiment with SN12C renal and 0.468 µM with K-562 leukemia. Besides, the TGI turned out to be 23.4 µM in the experiment with KM12 colon; 26.5 µM with SF-539 CNS; 17.5 µM in the experiment with A549 NSCLC; 28.8 µM in the experiment on M14 melanoma; 2.02 µM in the experiment with CAKI-1 renal; 0.134 µM in the experiment with A498 renal. In addition, the TGI was found to be 10.7 µM with NCI-H460 lung, 14.2 µM in the experiment with UO-31 renal, 23.2 µM with SN12C renal and 12.9 µM in the experiment on K-562 leukemia.

Turning to `CC(C)(C)c1cc(C(=O)O)c2c(c1)C(=O)OC2(c1ccccc1)c1ccccc1C(=O)O` (stereo unspecified), the TGI in the experiment with KM12 colon, with SF-539 CNS, with A549 NSCLC, with M14 melanoma, in the experiment with CAKI-1 renal and in the experiment on A498 renal was > 100 µM each time. For the same compound, the TGI with NCI-H460 lung, with UO-31 renal, in the experiment on SN12C renal and in the experiment on K-562 leukemia was > 100 µM throughout. In the experiment with A498 renal, the GI50 was > 100 µM.

On to `CCN(Cc1ccc(F)cc1)c1ccc(CO)c(C(F)(F)F)c1`, for which the GI50 in the experiment on KM12 colon is 15.2 µM; with SF-539 CNS, 15.5 µM; in the experiment on A549 NSCLC, 10.9 µM; in the experiment with M14 melanoma it was 15.1 µM; in the experiment with CAKI-1 renal it was 13.9 µM; with A498 renal, 0.122 µM. For the same compound, the GI50 with NCI-H460 lung was 3.43 µM; in the experiment with UO-31 renal, 12.5 µM; in the experiment on SN12C renal it was 12.9 µM; in the experiment on K-562 leukemia it was 10.4 µM. For the same compound, the TGI with KM12 colon came out at 29.3 µM; in the experiment on SF-539 CNS it was 28.9 µM; with A549 NSCLC, 23.5 µM; with M14 melanoma, 30.9 µM; with CAKI-1 renal, 28.7 µM; in the experiment on A498 renal, 0.287 µM. For the same compound, the TGI with NCI-H460 lung turned out to be 15.7 µM; in the experiment on UO-31 renal it was 25 µM; in the experiment with SN12C renal, 25.5 µM; in the experiment with K-562 leukemia, 52.1 µM.
